Results as given in ChEMBL document CHEMBL3991601, “The target landscape of clinical kinase drugs” (Science, 2017).
Active and inactive are the calls of the source. Rule as the data show it, for most assays here: actives have a measured Kd and inactives only a lower limit.

Experiments:
[1] = target: T1, Mitogen-activated protein kinase kinase kinase 3 (Homo sapiens, UniProt Q99759)
T1 sequence (Q99759 whole entry): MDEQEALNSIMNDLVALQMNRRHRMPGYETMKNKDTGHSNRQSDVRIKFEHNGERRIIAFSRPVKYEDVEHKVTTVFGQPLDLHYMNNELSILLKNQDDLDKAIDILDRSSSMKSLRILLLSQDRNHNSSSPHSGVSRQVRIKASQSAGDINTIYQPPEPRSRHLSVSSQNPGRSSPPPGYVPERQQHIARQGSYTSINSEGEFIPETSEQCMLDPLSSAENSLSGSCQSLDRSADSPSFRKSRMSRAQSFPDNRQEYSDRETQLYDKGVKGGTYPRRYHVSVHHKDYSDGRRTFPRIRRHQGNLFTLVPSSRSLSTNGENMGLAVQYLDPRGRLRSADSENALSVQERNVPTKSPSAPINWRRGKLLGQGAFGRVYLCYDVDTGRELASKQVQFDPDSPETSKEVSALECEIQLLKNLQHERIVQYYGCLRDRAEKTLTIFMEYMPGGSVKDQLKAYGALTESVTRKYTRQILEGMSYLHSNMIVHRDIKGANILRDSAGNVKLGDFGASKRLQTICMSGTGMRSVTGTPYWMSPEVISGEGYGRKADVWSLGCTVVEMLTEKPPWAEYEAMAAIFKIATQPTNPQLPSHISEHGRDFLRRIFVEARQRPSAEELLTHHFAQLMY

[2] = target: Ras-related protein Rab-6A (Homo sapiens, UniProt P20340)
[3] = target: Calcium/calmodulin-dependent protein kinase type II subunit delta (Homo sapiens, UniProt Q13557)
TGF-beta receptor type-1 = target: T2, TGF-beta receptor type-1 (Homo sapiens, UniProt P36897)
T2 sequence (P36897 whole entry): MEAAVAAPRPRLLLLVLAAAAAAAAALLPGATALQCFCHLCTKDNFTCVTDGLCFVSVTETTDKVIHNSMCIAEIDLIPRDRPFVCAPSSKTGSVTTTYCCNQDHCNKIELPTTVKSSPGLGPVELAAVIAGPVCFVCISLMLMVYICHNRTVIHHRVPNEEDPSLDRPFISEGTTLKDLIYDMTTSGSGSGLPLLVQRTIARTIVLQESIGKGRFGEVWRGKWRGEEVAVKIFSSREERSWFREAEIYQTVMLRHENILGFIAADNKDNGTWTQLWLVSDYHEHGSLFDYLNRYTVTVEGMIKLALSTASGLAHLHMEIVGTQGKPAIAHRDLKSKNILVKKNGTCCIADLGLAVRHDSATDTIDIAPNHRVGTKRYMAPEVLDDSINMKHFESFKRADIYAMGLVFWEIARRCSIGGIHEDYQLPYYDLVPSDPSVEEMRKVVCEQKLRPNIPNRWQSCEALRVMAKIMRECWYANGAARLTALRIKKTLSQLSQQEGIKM

[4] = target: MAP/microtubule affinity-regulating kinase 3 (Homo sapiens, UniProt P27448)
[5] = target: Maternal embryonic leucine zipper kinase (Homo sapiens, UniProt Q14680)
[6] = target: T3, Mitogen-activated protein kinase kinase kinase 2 (Homo sapiens, UniProt Q9Y2U5)
T3 sequence (Q9Y2U5 whole entry): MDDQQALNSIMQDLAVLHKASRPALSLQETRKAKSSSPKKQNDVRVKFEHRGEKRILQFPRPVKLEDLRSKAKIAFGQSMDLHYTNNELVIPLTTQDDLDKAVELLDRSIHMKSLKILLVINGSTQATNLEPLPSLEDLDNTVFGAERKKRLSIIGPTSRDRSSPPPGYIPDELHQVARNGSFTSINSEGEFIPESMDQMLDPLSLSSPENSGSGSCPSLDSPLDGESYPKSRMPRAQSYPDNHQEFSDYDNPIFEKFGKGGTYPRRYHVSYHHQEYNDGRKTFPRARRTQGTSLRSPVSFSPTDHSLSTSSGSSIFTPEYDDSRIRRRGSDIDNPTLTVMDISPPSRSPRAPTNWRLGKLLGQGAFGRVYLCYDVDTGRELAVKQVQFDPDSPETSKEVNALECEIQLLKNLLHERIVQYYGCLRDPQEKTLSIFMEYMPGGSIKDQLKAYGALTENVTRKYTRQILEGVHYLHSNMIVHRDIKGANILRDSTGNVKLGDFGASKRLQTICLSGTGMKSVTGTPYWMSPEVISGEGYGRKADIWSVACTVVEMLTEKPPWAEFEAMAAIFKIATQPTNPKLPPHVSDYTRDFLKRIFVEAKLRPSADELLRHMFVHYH

[7] = target: Interleukin-1 receptor-associated kinase 1 (Homo sapiens, UniProt P51617)
[8] = target: T4, Interleukin-1 receptor-associated kinase 3 (Homo sapiens, UniProt Q9Y616)
T4 sequence (Q9Y616 whole entry): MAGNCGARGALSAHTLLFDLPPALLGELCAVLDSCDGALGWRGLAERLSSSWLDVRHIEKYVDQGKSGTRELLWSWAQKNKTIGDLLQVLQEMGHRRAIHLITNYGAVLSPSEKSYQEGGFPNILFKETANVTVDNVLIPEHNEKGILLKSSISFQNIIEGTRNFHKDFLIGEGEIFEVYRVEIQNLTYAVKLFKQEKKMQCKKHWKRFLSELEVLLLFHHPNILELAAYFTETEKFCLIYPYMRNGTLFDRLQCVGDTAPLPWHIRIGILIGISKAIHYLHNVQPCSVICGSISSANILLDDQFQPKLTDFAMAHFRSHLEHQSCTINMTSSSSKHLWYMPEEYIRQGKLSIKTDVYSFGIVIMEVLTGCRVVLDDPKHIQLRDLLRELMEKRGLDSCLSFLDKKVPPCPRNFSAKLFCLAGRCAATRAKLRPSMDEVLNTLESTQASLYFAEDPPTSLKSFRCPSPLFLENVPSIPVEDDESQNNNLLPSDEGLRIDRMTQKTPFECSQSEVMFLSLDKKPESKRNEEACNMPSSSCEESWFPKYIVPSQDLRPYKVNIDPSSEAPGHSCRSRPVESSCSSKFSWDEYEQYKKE
Also: in the data inactive means no Kd found up to 30 µM.

Interleukin-1 receptor-associated kinase 1, sequence (P51617 whole entry): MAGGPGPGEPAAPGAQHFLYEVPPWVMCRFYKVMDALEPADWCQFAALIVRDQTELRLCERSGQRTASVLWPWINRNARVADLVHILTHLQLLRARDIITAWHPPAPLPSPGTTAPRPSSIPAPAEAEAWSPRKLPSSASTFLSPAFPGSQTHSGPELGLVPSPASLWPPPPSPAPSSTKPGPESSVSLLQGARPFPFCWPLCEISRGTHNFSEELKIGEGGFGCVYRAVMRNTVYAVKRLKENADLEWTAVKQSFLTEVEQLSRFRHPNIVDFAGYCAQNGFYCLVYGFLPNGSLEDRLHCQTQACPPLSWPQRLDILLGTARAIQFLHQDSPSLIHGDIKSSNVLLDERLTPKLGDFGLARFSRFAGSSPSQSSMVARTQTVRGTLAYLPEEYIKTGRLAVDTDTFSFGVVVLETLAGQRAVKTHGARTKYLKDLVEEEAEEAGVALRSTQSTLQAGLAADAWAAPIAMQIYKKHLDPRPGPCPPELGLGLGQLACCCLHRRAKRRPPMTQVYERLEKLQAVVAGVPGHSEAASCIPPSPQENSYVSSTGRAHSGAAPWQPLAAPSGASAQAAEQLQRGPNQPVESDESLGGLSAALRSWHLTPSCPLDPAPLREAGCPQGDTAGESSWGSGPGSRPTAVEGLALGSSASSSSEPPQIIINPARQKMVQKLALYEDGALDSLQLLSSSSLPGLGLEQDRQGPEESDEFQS
MAP/microtubule affinity-regulating kinase 3, sequence (P27448 whole entry): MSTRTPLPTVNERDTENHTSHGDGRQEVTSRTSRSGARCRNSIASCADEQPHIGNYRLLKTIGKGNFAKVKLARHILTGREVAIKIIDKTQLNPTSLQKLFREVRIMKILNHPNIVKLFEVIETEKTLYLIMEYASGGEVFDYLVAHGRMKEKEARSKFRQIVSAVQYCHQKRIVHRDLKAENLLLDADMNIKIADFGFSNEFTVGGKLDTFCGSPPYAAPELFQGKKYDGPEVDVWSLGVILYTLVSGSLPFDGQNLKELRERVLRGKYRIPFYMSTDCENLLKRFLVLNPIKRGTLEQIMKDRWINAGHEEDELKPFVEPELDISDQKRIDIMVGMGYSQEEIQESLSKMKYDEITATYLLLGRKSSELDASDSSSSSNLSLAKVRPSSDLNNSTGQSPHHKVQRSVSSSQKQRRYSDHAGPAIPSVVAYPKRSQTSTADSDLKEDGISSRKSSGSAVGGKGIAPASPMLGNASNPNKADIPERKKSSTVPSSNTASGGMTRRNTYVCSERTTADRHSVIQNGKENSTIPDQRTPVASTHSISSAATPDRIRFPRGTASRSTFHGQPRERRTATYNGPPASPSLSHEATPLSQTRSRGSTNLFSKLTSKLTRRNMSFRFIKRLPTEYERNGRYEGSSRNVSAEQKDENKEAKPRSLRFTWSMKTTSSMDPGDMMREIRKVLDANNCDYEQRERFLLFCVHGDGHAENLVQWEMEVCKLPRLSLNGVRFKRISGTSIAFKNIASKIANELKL
Calcium/calmodulin-dependent protein kinase type II subunit delta, sequence (Q13557 whole entry): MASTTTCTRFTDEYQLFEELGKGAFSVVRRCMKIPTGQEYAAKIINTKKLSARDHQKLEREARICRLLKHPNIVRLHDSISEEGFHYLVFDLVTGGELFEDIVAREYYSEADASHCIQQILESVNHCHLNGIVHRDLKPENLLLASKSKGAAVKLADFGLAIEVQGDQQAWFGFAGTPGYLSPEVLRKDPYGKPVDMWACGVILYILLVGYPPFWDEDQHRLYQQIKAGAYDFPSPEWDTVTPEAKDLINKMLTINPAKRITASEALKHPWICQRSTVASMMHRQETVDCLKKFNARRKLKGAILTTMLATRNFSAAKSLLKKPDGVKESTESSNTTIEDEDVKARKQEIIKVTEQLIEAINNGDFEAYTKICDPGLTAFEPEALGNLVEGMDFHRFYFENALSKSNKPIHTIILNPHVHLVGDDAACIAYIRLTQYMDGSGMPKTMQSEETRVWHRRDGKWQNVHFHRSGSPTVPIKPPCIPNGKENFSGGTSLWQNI
Maternal embryonic leucine zipper kinase, sequence (Q14680 whole entry): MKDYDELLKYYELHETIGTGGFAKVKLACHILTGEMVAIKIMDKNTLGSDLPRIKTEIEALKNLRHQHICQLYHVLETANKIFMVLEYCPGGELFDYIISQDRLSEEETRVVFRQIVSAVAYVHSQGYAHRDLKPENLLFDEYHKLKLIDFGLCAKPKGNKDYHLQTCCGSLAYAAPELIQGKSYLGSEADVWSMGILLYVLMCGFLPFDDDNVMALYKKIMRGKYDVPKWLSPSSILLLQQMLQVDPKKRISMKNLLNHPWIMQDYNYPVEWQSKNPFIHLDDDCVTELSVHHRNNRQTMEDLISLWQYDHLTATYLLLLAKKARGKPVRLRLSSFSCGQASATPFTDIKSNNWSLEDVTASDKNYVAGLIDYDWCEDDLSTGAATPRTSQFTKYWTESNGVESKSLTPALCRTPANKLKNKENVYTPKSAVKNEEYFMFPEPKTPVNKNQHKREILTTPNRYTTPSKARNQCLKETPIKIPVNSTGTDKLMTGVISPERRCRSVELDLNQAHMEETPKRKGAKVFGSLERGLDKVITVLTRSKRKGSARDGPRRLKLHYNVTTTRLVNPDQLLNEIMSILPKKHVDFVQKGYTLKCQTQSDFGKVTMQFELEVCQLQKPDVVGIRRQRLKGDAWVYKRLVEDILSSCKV
Ras-related protein Rab-6A, sequence (P20340 whole entry): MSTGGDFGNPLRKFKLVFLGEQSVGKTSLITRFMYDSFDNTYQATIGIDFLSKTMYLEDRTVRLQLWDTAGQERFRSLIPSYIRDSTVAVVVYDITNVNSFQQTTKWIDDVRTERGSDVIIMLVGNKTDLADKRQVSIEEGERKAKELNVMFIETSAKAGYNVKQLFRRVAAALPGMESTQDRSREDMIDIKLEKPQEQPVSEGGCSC

| Kd [1] | Kd [2] | Kd [3] | Kd (TGF-beta receptor type-1) | Kd [4] | Kd [5] | Kd [6] | Kd [7] | Kd [8] | Structure (SMILES) |
| --- | --- | --- | --- | --- | --- | --- | --- | --- | --- |
| > 30 µM (inactive) | > 30 µM (inactive) | > 30 µM (inactive) | > 30 µM (inactive) | > 30 µM (inactive) | > 30 µM (inactive) | > 30 µM (inactive) | > 30 µM (inactive) | > 30 µM (inactive) | Cn1cc(-c2ccc(F)c(C(F)(F)F)c2)nc1C1CCN(c2ncnc3[nH]ncc23)CC1 [LY-2584702] |
| > 30 µM (inactive) | > 30 µM (inactive) | > 30 µM (inactive) | 1.7 µM (active) | > 30 µM (inactive) | > 30 µM (inactive) | > 30 µM (inactive) | 1.58 µM (active) | 0.024 µM (active) | O=C(O)[C@]1(Cc2cccc(Nc3nccs3)n2)CC[C@@H](Oc2cccc(Cl)c2F)CC1 [MK-5108] |
| > 30 µM (inactive) | > 30 µM (inactive) | > 30 µM (inactive) | > 30 µM (inactive) | > 30 µM (inactive) | > 30 µM (inactive) | > 30 µM (inactive) | 0.258 µM (active) | 0.035 µM (active) | C1=C/COCc2cc(ccc2OCCN2CCCC2)Nc2nccc(n2)-c2cccc(c2)COC/1 [PACRITINIB] |
| > 30 µM (inactive) | > 30 µM (inactive) | > 30 µM (inactive) | > 30 µM (inactive) | > 30 µM (inactive) | > 30 µM (inactive) | > 30 µM (inactive) | > 30 µM (inactive) | > 30 µM (inactive) | OCCn1cc(-c2cnc3nnn(Cc4ccc5ncccc5c4)c3n2)cn1 [PF-04217903] |
| > 30 µM (inactive) | > 30 µM (inactive) | > 30 µM (inactive) | > 30 µM (inactive) | > 30 µM (inactive) | > 30 µM (inactive) | > 30 µM (inactive) | > 30 µM (inactive) | > 30 µM (inactive) | CNC(=O)c1ccc(C)c(-n2c(C)cc(OCc3ccc(F)cc3F)c(Br)c2=O)c1 [PH-797804] |
| > 30 µM (inactive) | > 30 µM (inactive) | > 30 µM (inactive) | > 30 µM (inactive) | > 30 µM (inactive) | > 30 µM (inactive) | > 30 µM (inactive) | > 30 µM (inactive) | > 30 µM (inactive) | CNC(=O)c1cc(Oc2ccc(NC(=O)Nc3ccc(Cl)c(C(F)(F)F)c3)c(F)c2)ccn1 [REGORAFENIB] |
| > 30 µM (inactive) | > 30 µM (inactive) | 0.293 µM (active) | > 30 µM (inactive) | > 30 µM (inactive) | > 30 µM (inactive) | > 30 µM (inactive) | > 30 µM (inactive) | > 30 µM (inactive) | CN(C)C(=O)c1cc2cnc(Nc3ccc(N4CCNCC4)cn3)nc2n1C1CCCC1 [RIBOCICLIB] |
| > 30 µM (inactive) | > 30 µM (inactive) | > 30 µM (inactive) | > 30 µM (inactive) | > 30 µM (inactive) | > 30 µM (inactive) | > 30 µM (inactive) | > 30 µM (inactive) | > 30 µM (inactive) | COc1cc(OC)c(/C=C/S(=O)(=O)Cc2ccc(OC)c(NCC(=O)O)c2)c(OC)c1 [RIGOSERTIB] |
| > 30 µM (inactive) | > 30 µM (inactive) | > 30 µM (inactive) | > 30 µM (inactive) | > 30 µM (inactive) | > 30 µM (inactive) | > 30 µM (inactive) | > 30 µM (inactive) | > 30 µM (inactive) | CNC(=O)CN1CCC(Oc2cc3c(Nc4cccc(Cl)c4F)ncnc3cc2OC)CC1 [SAPITINIB] |
| > 30 µM (inactive) | > 30 µM (inactive) | > 30 µM (inactive) | > 30 µM (inactive) | > 30 µM (inactive) | > 30 µM (inactive) | > 30 µM (inactive) | > 30 µM (inactive) | > 30 µM (inactive) | C[C@@H](c1ccc2nccn2c1)n1nnc2ncc(-c3cnn(C)c3)nc21 [SAVOLITINIB] |
| > 30 µM (inactive) | > 30 µM (inactive) | > 30 µM (inactive) | > 30 µM (inactive) | > 30 µM (inactive) | > 30 µM (inactive) | > 30 µM (inactive) | > 30 µM (inactive) | 0.026 µM (active) | CN1CCC(CNc2ccc3ncc(-c4cccc(OC(F)(F)F)c4)n3n2)CC1 [SGI-1776] |
| > 30 µM (inactive) | > 30 µM (inactive) | > 30 µM (inactive) | > 30 µM (inactive) | > 30 µM (inactive) | > 30 µM (inactive) | > 30 µM (inactive) | > 30 µM (inactive) | > 30 µM (inactive) | C[C@@H]1CN(Cc2ccc(F)cc2)[C@@H](C)CN1C(=O)c1cc2c(C(=O)C(=O)N(C)C)cn(C)c2cc1Cl [TALMAPIMOD] |
| > 30 µM (inactive) | > 30 µM (inactive) | > 30 µM (inactive) | > 30 µM (inactive) | > 30 µM (inactive) | > 30 µM (inactive) | > 30 µM (inactive) | > 30 µM (inactive) | > 30 µM (inactive) | O=c1sn(-c2cccc3ccccc23)c(=O)n1Cc1ccccc1 [TIDEGLUSIB] |

| Structure (SMILES) | Kd [1] | Kd [2] | Kd [3] | Kd (TGF-beta receptor type-1) | Kd [4] | Kd [5] | Kd [6] | Kd [7] | Kd [8] |
| --- | --- | --- | --- | --- | --- | --- | --- | --- | --- |
| Cc1ccc(-n2nc(C(C)(C)C)cc2NC(=O)NCc2cc(F)ccc2Oc2ccc3c(cnn3CCO)c2)cc1 [PEXMETINIB] | > 30 µM (inactive) | > 30 µM (inactive) | > 30 µM (inactive) | > 30 µM (inactive) | > 30 µM (inactive) | > 30 µM (inactive) | > 30 µM (inactive) | 4.37 µM (active) | > 30 µM (inactive) |
| C=CC(=O)N1CCC(Oc2cc3c(Nc4ccc(Cl)c(Cl)c4F)ncnc3cc2OC)CC1 [POZIOTINIB] | > 30 µM (inactive) | > 30 µM (inactive) | > 30 µM (inactive) | > 30 µM (inactive) | > 30 µM (inactive) | > 30 µM (inactive) | > 30 µM (inactive) | > 30 µM (inactive) | > 30 µM (inactive) |
| CN1CCC(COc2cnc(-c3cccc(Cn4nc(-c5cccc(C#N)c5)ccc4=O)c3)nc2)CC1 [TEPOTINIB] | > 30 µM (inactive) | > 30 µM (inactive) | > 30 µM (inactive) | > 30 µM (inactive) | > 30 µM (inactive) | > 30 µM (inactive) | > 30 µM (inactive) | > 30 µM (inactive) | > 30 µM (inactive) |
